This data set is described as follows: Inhibition of p-glycoprotein in human MDA435/LCC6MDR cells assessed as concentration required to reduce taxol IC50 by half after 5 days by MTS assay.

For two molecules, EC50 results are on record in BindingDB's records for doi:10.1016/j.ejmech.2014.06.016 (Ocean University of China, 2014).

Broadly, the EC50 is the concentration that produces a half-maximal response. With `CCN(CC)c1ccc(Cc2c(Cc3ccc(OC)c(OC)c3)nc(NC(=O)c3cc(OC)c(OC)c(OC)c3)n2C)cc1`, the 50% effective concentration (EC50) was determined as 213 nM. Under `CCN(CC)c1ccc(Cc2c(Cc3ccc(OC)c(OC)c3)nc(N(C(=O)/C=C/c3cc(OC)c(OC)c(OC)c3)C(=O)/C=C/c3cc(OC)c(OC)c(OC)c3)n2C)cc1` stands 211 nM.
